Measured values as given in article PMC10860144, “Exploring the Dispersion and Electrostatic Components in Arene–Arene Interactions between Ligands and G4 DNA to Develop G4-Ligands” (Journal of Medicinal Chemistry, 2024).

How the values were obtained:
[1] = tested on: Immortalized Human Total Liver Cell Population (IHTLCP); assay: IHTLCP cell viability (PrestoBlue); format: cell-based; details: 72 h
Description: (§1) Cell viability was measured using the PrestoBlue cell viability reagent (Invitrogen) according to the manufacturer’s recommendations.
For IHTLCP, 1850 cells/well were seeded in complete Prigrow III medium (abm) in 384-wells, black walls plate (PerkinElmer) the day before the treatment. Compounds were titrated 1/2 in DMSO, dissolved in medium, and transferred to the cells to generate the indicated final concentrations (final volume 60 μL/well). 72 h after treatment, 6 μL of PrestoBlue was added per well. Cells were incubated in PrestoBlue for 1 h at 37 °C after which fluorescence (excitation 535 nm, emission 590 nm, 20 nm bandwidth) was measured using a Synergy H4Microplate Reader. Percent viability of IHTLCP cells was calculated as FLUcmp – FLUbg/FLUDMSO – FLUbg (n = 3). […]
a Intrinsic clearance in rat hepatocytes ((μL/min)/10^6 cells).b Intrinsic clearance in human microsomes (μL/min/mg).
Table S3. […]
as §1
For HeLa cells, 5000 cells/well were seeded in complete medium on 96-wells, black walls plate the day before the treatment. […] Fluorescence (excitation 560 nm, emission 590 nm, 10 nm bandwidth) was recorded using a FLUOstar Omega Microplate Reader (BMG). […]
(§2) THP1 cell viability was measured according to a previously published procedure.9

[2] = tested on: G4 DNA structures in HeLa cells; assay: BG4 immunostaining of G4 DNA structures in HeLa cells; format: cell-based, human; details: 24 h
Description: The pSANG10-3F-BG4 construct, for expression and purification of recombinant BG4 (BG4), was a gift from Shankar Balasubramanian (Addgene plasmid # 55756). BG4 was purified as previously described.[49] BG4 immunostaining was performed as previously described.[50] Briefly, 60,000 HeLa cells were seeded on 13 mm glass coverslips the day before treatment. Cells were treated for 24 h with the compounds at the indicated concentrations. After treatment, cells were fixed in 2% paraformaldehyde and permeabilized in 0.1% Triton X-100 at room temperature. […] Cell nuclei were focused on the DAPI channel, and BG4-positive foci were counted in a semiautomatic mode using a customized Cell Profiler (Broad Institute) pipeline. […]
Figure S23. Toxicity of 5 and 27 calculated as % viability of IHTLCP cells treated for 72h at the indicated concentrations compared to non-treated cells. […] IC50 and R2 determined with Graph Pad Prism is indicated. […]
Cells were imaged with a LEICA SP8 FALCON confocal microscope equipped with a 63× oil objective (NA 1.40) using identical acquisition settings. Cell nuclei were focused on the DAPI channel, and BG4-positive foci were counted in a semiautomatic mode using a customized Cell Profiler (Broad Institute) pipeline. […]

HeLa cells = assay: HeLa cell viability (PrestoBlue); format: cell-based; details: Homo sapiens, 48 h
Description: as §1
For HeLa cells, 5000 cells/well were seeded in complete medium on 96-wells, black walls plate the day before the treatment. Compounds were dissolved in medium at the indicated concentrations and added to cells. Five technical replicates were performed for each treatment. 48 h after treatment, 8 μL of PrestoBlue was added to each well and the cells were incubated at 37 °C for 15 min. Fluorescence (excitation 560 nm, emission 590 nm, 10 nm bandwidth) was recorded using a FLUOstar Omega Microplate Reader (BMG). […]
as §1
For HeLa cells, 5000 cells/well were seeded in complete medium on 96-wells, black walls plate the day before the treatment. […] Fluorescence (excitation 560 nm, emission 590 nm, 10 nm bandwidth) was recorded using a FLUOstar Omega Microplate Reader (BMG).
For Immortalized Human Total Liver Cell Population (IHTLCP), 1850 cells/well were seeded in complete Prigrow III medium (abm) in 384-wells, black walls plate (Perkin Elmer) the day before the treatment. […] Percent viability of IHTLCP cells was calculated as FLUcmp -FLUbg/ FLUDMSO -FLUbg (n=3).
as §2

| IC50 (HeLa cells) [µM] | SMILES | IC50 [1] [µM] | number of BG4 foci per cell nucleus ([2]; 2 μM, versus 1 μM and mock-treated cells) | number of BG4 foci per cell nucleus ([2]; 20 μM) |
| --- | --- | --- | --- | --- |
| 0.88 to 1.1 | Cc1cc(C)c2nc(Nc3nc(C)cc(NCCCN(C)C)n3)nc(C)c2c1 [Compound 5, N4-(3-(Dimethylamino)propyl)-6-methyl-N2-(4,6,8-trimethylquinazolin-2-yl)pyrimidine-2,4-diamine] | 0.64 | increased significantly | – |
| 19 to 34 | Cc1cc(C)c2nc(Nc3nc(C)cc(C)n3)nc(C)c2c1 [Compound 27, N-(4,6-Dimethylpyrimidin-2-yl)-4,6,8-trimethylquinazolin-2-amine] | 35 | – | not statistically fully significant |
